Data: patent US5124334A, “Benzylalcohol phospholipase A2 inhibitors” (Du Pont Merck Pharmaceutical Company, priority 1989, dated 1992)
Structures can show the parent of a compound that is named as a salt.

Test system: inflammation induced by tetradecanoyl phorbol acetate (TPA)
Test: TPA inflammation inhibition test (TPA-induced mouse ear edema)
Format: in vivo, mice
Details: test compound 100 mg/ear applied topically, edema measured four hours later
Excerpt: One such model is the inflammation induced by tetradecanoyl phorbol acetate (TPA), modified from the method of Kuehl et al., Nature, 1977, 265, 170; and Van Arman, Clin. Pharmacol. Ther., 1974, 16, 900. The TPA model mimics many of the inflammatory change which occur in human skin diseases such as psoriasis, since elevated levels of inflammatory arachidonic acid metabolites are found and an influx of polymorphonuclear leukocytes is observed. The test procedure used to evaluate the compounds of Formula (I) is as follows: the test compound (100 mg/ear) is applied to both ears of mice in an appropriate vehicle, such as acetone, and then the inflammatory stimulus (TPA) is applied to the right ear. Four hours later, the edema is measured by removing standard size discs from the ears using a biopsy punch. A control group of animals receives TPA in vehicle applied to the right ear, and vehicle alone to the left ear. The weights of the ear discs are determined, and the suppression of swelling observed in animals treated with the test compound is determined.

| SMILES | % Inhibition of Control Swelling |
| --- | --- |
| CC(C)c1ccc2c(c1)CCC1C(C)(CNCCC(O)c3ccc(F)cc3)CCCC21C (stereo not drawn) [Example 1, α-(2-[1,4a-Dimethyl-7-(2-propyl)-1,2,3,4,4a,9,10,10a-octahydro-1-phenanthren-1-yl]methylamino)ethyl)-4-fluorobenzenemethanol Hydrochloride] | 46% |
| CC(C)c1ccc2c(c1)CCC1C(C)(CNCCCC(O)c3ccc(F)cc3)CCCC21C.Cl (stereo not drawn) [Example 2, α-(3-([1,4a-Dimethyl-1,2,3,4,4a,9,10,10a-octahydro-7-(2-propyl)-1-phenanthrenyl]methylamino)propyl)-4-fluorobenzenemethanol Hydrochloride] | 57% |
| COc1ccc(C(O)CCNCC2(C)CCCC3(C)c4ccc(C(C)C)cc4CCC23)cc1.Cl (stereo not drawn) [Example 12, α-(2-([1,4a-Dimethyl-1,2,3,4,4a,9,10,10a-octahydro-7-(2-propyl)-1-phenanthrenyl]methylamino)-ethyl)-4-methoxybenzenemethanol Hydrochloride] | 27% |
